Results reported in patent US7799785B2, “Substituted tetracyclic tetahydrofuran, pyrrolidine and tetrahydrothiophene derivatives” (Janssen Pharmaceutica NV, priority 2004, dated 2010).

Tests used:
[1] = molecular target: T1, human cloned 5-HT2A receptor, expressed in L929 cells (Homo sapiens, UniProt P28223); assay: In vitro radioligand binding affinity for 5-HT2A receptor ([125I]R91150); details: read-out: h-5HT2A (converted)
T1 construct: expressed in transfected cells; host or cells: L929 cells
Experimental: (§1) In vitro Binding Affinity for 5-HT2A and 5-HT2C Receptors
The interaction of the compounds of Formula (I) with 5-HT2A and 5-HT2C receptors was assessed in in vitro radioligand binding experiments. In general, a low concentration of a radioligand with a high binding affinity for the receptor is incubated with a sample of a tissue preparation enriched in a particular receptor (1 to 5 mg tissue) in a buffered medium (0.2 to 5 ml). During the incubation, the radioligands bind to the receptor. When equilibrium of binding is reached, the receptor bound radioactivity is separated from the non-bound radioactivity, and the receptor bound activity is counted. The interaction of the test compounds with the receptors is assessed in competition binding experiments. Various concentrations of the test compound are added to the incubation mixture containing the tissue preparation and the radioligand. Binding of the radioligand will be inhibited by the test compound in proportion to its binding affinity and its concentration. The affinities of the compounds for the 5-HT2 receptors were measured by means of radioligand binding studies conducted with: (a) human cloned 5-HT2A receptor, expressed in L929 cells using [^125I]R91150 as radioligand and (b) human cloned 5-HT2C receptor, expressed in CHO cells using [^3H]mesulergine as radioligand.

[2] = molecular target: T2, human cloned 5-HT2C receptor, expressed in CHO cells (Homo sapiens, UniProt P28335); assay: In vitro radioligand binding affinity for 5-HT2C receptor ([3H]mesulergine)
T2 construct: expressed in transfected cells; host or cells: CHO cells
T2 sequence (P28335 33-458): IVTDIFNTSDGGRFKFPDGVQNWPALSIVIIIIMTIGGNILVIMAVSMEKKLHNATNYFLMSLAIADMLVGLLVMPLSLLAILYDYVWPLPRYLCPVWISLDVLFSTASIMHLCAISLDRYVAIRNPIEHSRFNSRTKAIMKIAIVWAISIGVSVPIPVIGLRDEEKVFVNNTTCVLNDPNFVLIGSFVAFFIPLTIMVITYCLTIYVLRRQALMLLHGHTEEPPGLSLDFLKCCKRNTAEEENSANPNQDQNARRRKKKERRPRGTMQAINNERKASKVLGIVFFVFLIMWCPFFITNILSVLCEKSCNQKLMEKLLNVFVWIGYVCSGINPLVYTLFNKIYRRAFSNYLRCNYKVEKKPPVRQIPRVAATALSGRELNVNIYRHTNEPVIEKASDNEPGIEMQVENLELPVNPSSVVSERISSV
Experimental: as §1
The interaction of the compounds of Formula (I) with 5-HT2A and 5-HT2C receptors was assessed in in vitro radioligand binding experiments. […] During the incubation, the radioligands bind to the receptor. When equilibrium of binding is reached, the receptor bound radioactivity is separated from the non-bound radioactivity, and the receptor bound activity is counted. The interaction of the test compounds with the receptors is assessed in competition binding experiments. Various concentrations of the test compound are added to the incubation mixture containing the tissue preparation and the radioligand. Binding of the radioligand will be inhibited by the test compound in proportion to its binding affinity and its concentration.

[3] = molecular target: T3, human Dopamine D2L receptor (Homo sapiens, UniProt P14416); assay: In vitro binding affinity for human D2L receptor ([3H]Spiperone); details: human D2L receptor-transfected CHO cell membranes
T3 construct: expressed in transfected cells; host or cells: CHO cells
Experimental: In vitro Binding Affinity for Human D2L Receptor
Frozen membranes of human Dopamine D2L receptor-transfected CHO cells were thawed, briefly homogenised using an Ultra-Turrax T25 homogeniser and diluted in Tris-HCl assay buffer containing NaCl, CaCl2, MgCl2, KCl (50, 120, 2, 1, and 5 mM respectively, adjusted to pH 7.7 with HCl) to an appropriate protein concentration optimised for specific and non-specific binding. Radioligand [^3H]Spiperone (NEN, specific activity ˜70 Ci/mmol) was diluted in assay buffer at a concentration of 2 nmol/L. Prepared radioligand (50 μl), along with 50 μl of either the 10% DMSO control, Butaclamol (10^−6 mol/l final concentration), or compound of interest, was then incubated (30 min, 37° C.) with 400 μl of the prepared membrane solution. Membrane-bound activity was filtered through a Packard Filtermate harvester onto GF/B Unifilterplates and washed with ice-cold Tris-HCl buffer (50 mM; pH 7.7; 6×0.5 ml). Filters were allowed to dry before adding scintillation fluid and counting in a Topcount scintillation counter. Percentage specific bound and competition binding curves were calculated using S-Plus software (Insightful).

NET = molecular target: T4, NET (Rattus norvegicus, UniProt Q63380); assay: In vitro determination of NET reuptake inhibition ([3H]Nixosetine binding, rat brain cortex membranes)
T4 construct: Cortex from rat brain was collected and homogenised; from tissue; host or cells: rat brain cortex homogenate/membranes
Experimental: In vitro Determination of NET Reuptake Inhibition
Cortex from rat brain was collected and homogenised using an Ultra-Turrax T25 and a Dual homogeniser in ice-cold homogenising buffer containing Tris, NaCl and KCl (50 mM, 120 mM and 5 mM, respectively, pH 7.4) prior to dilution to an appropriate protein concentration optimised for specific and non-specific binding. […] Membrane-bound activity was detected by filtration through a Packard Filtermate harvester onto GF/B Unifilterplates, washed with ice-cold Tris-HCl buffer, containing NaCl and KCl (50 mM, 120 mM and 4 mM; pH 7.4; 6×0.5 ml). Filters were allowed to dry for 24 h before adding scintillation fluid. Scintillation fluid was allowed to saturate filters for 24 h before counting in a Topcount scintillation counter. Percentage specific bound and competition binding curves were calculated using S-Plus software (Insightful).

T3 sequence (P14416 whole entry): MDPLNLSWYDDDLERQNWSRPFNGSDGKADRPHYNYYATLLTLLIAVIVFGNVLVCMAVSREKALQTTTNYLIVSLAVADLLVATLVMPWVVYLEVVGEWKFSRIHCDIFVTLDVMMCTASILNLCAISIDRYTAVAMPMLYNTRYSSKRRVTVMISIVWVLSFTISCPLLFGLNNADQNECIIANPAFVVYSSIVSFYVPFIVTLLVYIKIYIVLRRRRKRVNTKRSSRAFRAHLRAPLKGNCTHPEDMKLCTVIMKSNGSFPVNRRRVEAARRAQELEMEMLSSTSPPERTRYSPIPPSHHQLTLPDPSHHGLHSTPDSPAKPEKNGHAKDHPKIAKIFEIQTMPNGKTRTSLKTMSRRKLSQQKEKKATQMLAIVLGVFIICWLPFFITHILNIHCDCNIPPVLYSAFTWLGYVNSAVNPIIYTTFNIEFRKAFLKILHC
T4 sequence (Q63380 1-617): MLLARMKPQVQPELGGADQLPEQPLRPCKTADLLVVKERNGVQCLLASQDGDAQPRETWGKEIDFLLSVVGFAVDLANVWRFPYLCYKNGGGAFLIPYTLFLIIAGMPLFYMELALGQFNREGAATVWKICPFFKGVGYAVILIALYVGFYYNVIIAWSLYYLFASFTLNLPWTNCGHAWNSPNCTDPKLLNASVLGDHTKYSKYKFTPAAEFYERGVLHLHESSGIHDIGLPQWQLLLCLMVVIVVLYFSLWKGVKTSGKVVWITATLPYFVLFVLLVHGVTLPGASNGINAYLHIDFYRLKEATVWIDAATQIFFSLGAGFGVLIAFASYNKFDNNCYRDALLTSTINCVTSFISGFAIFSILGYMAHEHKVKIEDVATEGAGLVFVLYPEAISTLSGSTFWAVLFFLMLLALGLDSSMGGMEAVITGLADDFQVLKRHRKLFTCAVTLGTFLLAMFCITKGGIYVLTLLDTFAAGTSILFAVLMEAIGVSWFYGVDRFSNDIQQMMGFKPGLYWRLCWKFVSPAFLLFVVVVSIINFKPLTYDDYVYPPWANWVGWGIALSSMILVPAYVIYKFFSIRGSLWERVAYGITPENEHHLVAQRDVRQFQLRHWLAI
T1 sequence (P28223 whole entry): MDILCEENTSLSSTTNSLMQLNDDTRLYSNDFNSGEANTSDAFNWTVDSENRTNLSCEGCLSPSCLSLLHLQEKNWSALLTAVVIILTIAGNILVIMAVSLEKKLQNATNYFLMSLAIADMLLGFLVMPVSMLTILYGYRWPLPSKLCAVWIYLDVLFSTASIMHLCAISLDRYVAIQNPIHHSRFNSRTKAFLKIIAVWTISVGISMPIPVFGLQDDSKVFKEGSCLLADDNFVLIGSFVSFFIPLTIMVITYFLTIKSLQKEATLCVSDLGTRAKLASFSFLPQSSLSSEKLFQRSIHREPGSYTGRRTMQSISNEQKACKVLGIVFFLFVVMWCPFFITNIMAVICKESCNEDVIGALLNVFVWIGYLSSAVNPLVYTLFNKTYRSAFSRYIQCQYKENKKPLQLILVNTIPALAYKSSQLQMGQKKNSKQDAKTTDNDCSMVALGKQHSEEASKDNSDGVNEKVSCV

Row | SMILES | IC50 [1] | IC50 [2] | IC50 [3] | IC50 (NET) | NET Reuptake Inhibition (NET) | melting point
1 | COC(=O)N1[C@@H](CN(C)C)C[C@@H]2c3ccccc3Cc3ccc(F)cc3[C@H]21 [36a, Methyl(2R,3aR,12bS)-2-[(dimethylamino)methyl]-11-fluoro-3,3a,8,12b-tetrahydro-dibenzo[3,4:6,7]cyclohepta[1,2-b]pyrrole-1(2H)-carboxylate] | > 1000 nM | > 1000 nM | > 1000 nM | 692 nM | – | –
2 | CN(C)C[C@H]1C[C@@H]2c3ccccc3Cc3ccc(F)cc3[C@H]2N1C=O [36c, (2R,3aR,12bS)-2-[(dimethylamino)methyl]-11-fluoro-3,3a,8,12b-tetrahydrodibenzo[3,4:6,7]cyclohepta[1,2-b]pyrrole-1(2H)-carbaldehyde] | 550 nM | 77.6 nM | 4900 nM | 224 nM | – | –
3 | CN[C@@H]1CO[C@@H]2c3cc(F)ccc3Cc3ccccc3[C@H]2C1 (relative stereo) [compound 35, (3S *,4aR*,13bS*)-12-fluoro-N-methyl-2,3,4,4a,9,13b-hexahydrodibenzo[3,4:6,7]-cyclohepta[1,2-b]pyran-3-amine] | > 1000 nM | – | > 1000 nM | > 1000 nM | – | –
4 | CN1CC(=O)N2[C@H](C[C@@H]3c4ccccc4Cc4ccc(F)cc4[C@H]32)C1 [compound 13, (5aS,14bR,15aR)-7-fluoro-2-methyl-1,2,3,5a,10,14b,15,15a-octahydro-4H-dibenzo-[3′,4′:6′,7′]cyclohepta[1′,2′:4,5]pyrrolo[1,2-a]pyrazin-4-one] | – | – | – | – | <5 | 139 to 141 °C
5 | CN(CCO)C[C@H]1C[C@@H]2c3ccccc3Cc3ccc(F)cc3[C@H]2N1 [43b, 2-[{[(2R,3aR,12bS)-11-fluoro-1,2,3,3a,8,12b-hexahydrodibenzo[3,4:6,7]-cyclohepta[1,2-b]pyrrol-2-yl]methyl}(methyl)amino]-ethanol] | 67.6 nM | 89.1 nM | 437 nM | 15.8 nM | – | –
6 | Fc1ccc2c(c1)[C@@H]1[C@H](C[C@@H]3CNC(=S)N31)c1ccccc1C2 [compound 8, (4aS,13bR,14aR)-6-fluoro-1,4a,9,13b,14,14a-hexahydrodibenzo[3′,4′:6′,7′]-cyclohepta[1′,2′:4,5]pyrrolo[1,2-c]imidazole-3(2H)-thione] | – | – | – | – | 5.66 | 150 to 151 °C
